# Data: patent publication US9695155B2, “Herbicidal substituted pyrimidinyloxy benzene compounds” (E. I. DU PONT DE NEMOURS AND COMPANY, priority 2013, dated 2017)
# Experiments:
# [1] = system: barnyardgrass; assay: Test A preemergence; assay type: in vivo, Echinochloa crus-galli; settings: for Barnyardgrass plant response rating: 500 g ai/ha
# How it was run: (§1)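 Scoring: eye-based comparison with untreated controls, 0 for no effect through 100 for complete control, at about day 10. Treatments: directed soil spray preemergence; foliar spray postemergence on 2–10 cm plants at the one- to two-leaf stage. Medium: loam soil with sand.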
# [2] = system: pigweed; assay: Test A preemergence; assay type: in vivo, Amaranthus retroflexus; settings: for Plant response rating, Pigweed: 125 g ai/ha
# How it was run: as §1
# [3] = system: barnyardgrass; assay: Test A postemergence; assay type: in vivo, Echinochloa crus-galli
# How it was run: as §1
# [4] = system: giant foxtail; assay: Test A postemergence; assay type: in vivo, Setaria faberii
# How it was run: as §1
# [5] = system: pigweed; assay: Test A postemergence; assay type: in vivo, Amaranthus retroflexus
# How it was run: as §1
# [6] = system: wheat; assay: Test A postemergence; assay type: in vivo, Triticum aestivum
# How it was run: as §1
# [7] = system: corn; assay: Test A postemergence; assay type: in vivo, Zea mays
# How it was run: as §1
# [8] = system: rice; assay: Test B flooded paddy test; assay type: in vivo, Oryza sativa; settings: Flood, 250 g ai/ha; 0 to 100 scale where 0 is no effect and 100 is complete control
# How it was run: (§2)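 Visual ratings on a 0 to 100 scale, where 100 means complete control, compared treated plants with controls after 13 to 15 days in a greenhouse. Treatment went into paddy water 3 cm deep over the soil, applied to plants at the 2-leaf stage.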
# [9] = system: sedge, umbrella; assay: Test B flooded paddy test; assay type: in vivo, Cyperus difformis; settings: Flood, 250 g ai/ha; 0 to 100 scale where 0 is no effect and 100 is complete control
# How it was run: as §2
# [10] = system: Heteranthera limosa; assay: Test B flooded paddy test; assay type: in vivo; settings: Flood, 250 g ai/ha; 0 to 100 scale where 0 is no effect and 100 is complete control
# How it was run: as §2
# [11] = system: galium; assay: Test C postemergence; assay type: in vivo, Galium aparine
# Source text: (§3) Seeds of plant species selected from blackgrass (Alopecurus myosuroides), Italian ryegrass (Lolium multiflorum), wheat, winter (winter wheat, Triticum aestivum), galium (catchweed bedstraw, Galium aparine), corn (Zea mays), large (Lg) crabgrass (Digitaria sanguinalis), giant foxtail (Setaria faberii), johnsongrass (Sorghum halepense), lambsquarters (Chenopodium album), morningglory (Ipomoea coccinea), yellow nutsedge (Cyperus esculentus), pigweed (Amaranthus retroflexus), ragweed (common ragweed, Ambrosia elatior), soybean (Glycine max), barnyardgrass (Echinochloa crus-galli), oilseed rape (Brassica napus), waterhemp (common waterhemp, Amaranthus rudis), kochia (Kochia scoparia), wild oat (Avena fatua), surinam grass (Brachiaria decumbens), foxtail, green (green foxtail, Setaria viridis), goosegrass (Eleusine indica), bromegrass, downy (downy bromegrass, Bromus tectorum), nightshade (eastern black nightshade, Solanum ptycanthum), cocklebur (common cocklebur, Xanthium strumarium), cupgrass, woolly (woolly cupgrass, Eriochloa villosa), bermudagrass (Cynodon dactylon), sunflower, (common oilseed sunflower, Helianthus annuus), Russian thistle (Salsola kali), and velvetleaf (Abutilon theophrasti) were planted into a blend of loam soil and sand and treated preemergence with test chemicals formulated in a non-phytotoxic solvent mixture which included a surfactant.
# (§4) At the same time, plants selected from these crop and weed species and also barley, winter (winter barley, Hordeum vulgare), windgrass (Apera spica-venti), chickweed (common chickweed, Stellaria media), deadnettle (henbit deadnettle, Lamium amplexicaule), and canarygrass (littleseed canarygrass, Phalaris minor) were planted in pots containing Redi-Earth® planting medium (Scotts Company, 14111 Scottslawn Road, Marysville, Ohio 43041) comprising spaghnum peat moss, vermiculite, wetting agent and starter nutrients and treated with postemergence applications of test chemicals formulated in the same manner. Plants ranged in height from 2 to 18 cm (1- to 4-leaf stage) for postemergence treatments. Treated plants and controls were maintained in a greenhouse for 13 to 15 days, after which time all species were compared to controls and visually evaluated. Plant response ratings, summarized in Table C, are based on a scale of 0 to 100 where 0 is no effect and 100 is complete control. A dash (-) response means no test result.
# [12] = system: pigweed; assay: Test C postemergence; assay type: in vivo, Amaranthus retroflexus; settings: for Plant response rating, Pigweed: scale 0 to 100 (0 no effect, 100 complete control)
# How it was run: (§5)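 Greenhouse herbicide screen. Pre: seeded loam/sand, sprayed at planting. Post: 1–4 leaf plants (2–18 cm) in peat-based mix. Formulation: solvent mixture + surfactant, non-phytotoxic. Readout: visual % control vs untreated, 13–15 d; dash = not tested.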
# [13] = system: barnyardgrass; assay: Test C postemergence; assay type: in vivo, Echinochloa crus-galli
# How it was run: as §5
# [14] = system: kochia; assay: Test C postemergence; assay type: in vivo, Kochia scoparia
# How it was run: as §5
# [15] = system: velvetleaf; assay: Test C postemergence; assay type: in vivo, Abutilon theophrasti; settings: for Plant response rating, Velvetleaf: scale 0 to 100 (0 no effect, 100 complete control)
# Source text: as §3, §4
# [16] = 125 g ai/ha, 0 to 100 scale where 0 is no effect and 100 is complete control
# [17] = 0 to 100 scale where 0 is no effect and 100 is complete control
# [18] = 500 g ai/ha, 0 to 100 scale where 0 is no effect and 100 is complete control
# [19] = 16 g ai/ha, postemergence, visual rating, scale 0 to 100 (0 no effect, 100 complete control), 13 to 15 days
# [20] = Postemergence, 31 g ai/ha, scale 0 to 100 (0 no effect, 100 complete control), 13 to 15 days
# [21] = Postemergence, 62 g ai/ha, scale 0 to 100 (0 no effect, 100 complete control)
# [22] = Postemergence, 31 g ai/ha, 13 to 15 days
# [23] = 16 g ai/ha, postemergence, 0 is no effect, 100 is complete control
# [24] = 125 g ai/ha, postemergence, visual rating, scale 0 to 100 (0 no effect, 100 complete control)
# [25] = 125 g ai/ha, postemergence, visual rating
# [26] = 1000 g ai/ha, 0 to 100 scale, 0 no effect, 100 complete control
Structure (SMILES),"Plant response rating, Barnyardgrass [1, 16]","Plant response rating, Pigweed [2, 17]","Plant response rating, Barnyardgrass [3, 16]","Plant response rating, Barnyardgrass [3, 18]","Plant response rating, Foxtail, Giant [4, 16]","Plant response rating, Foxtail, Giant [4, 18]","Plant response rating, Pigweed [5, 18]","Plant response rating, Wheat [6, 18]","Plant response rating, Corn [7, 16]","Plant response rating, Corn [7, 18]","Plant response rating, Rice [8]","Plant response rating, Sedge, Umbrella [9]","Plant response rating, Ducksalad [10]","Plant response rating, Galium [11, 21]","Plant response rating, Pigweed ([12]; Postemergence, 62 g ai/ha)","Plant response rating, Barnyardgrass [13, 20]","Plant response rating, Barnyardgrass [13, 21]","Plant response rating, Kochia [14, 21]","Plant response rating, Velvetleaf ([15]; Postemergence, 62 g ai/ha)","Plant response rating (0 to 100), Galium [11, 23]",other results
Cc1cnc(Oc2cccc(C#N)c2-n2cc(C#N)cn2)nc1 [Compound 90],70,100,90,100,80,90,100,50,0,80,0,40,40,65,45,5,5,45,60,–,"Barnyardgrass plant response rating ([1]; 0 to 100 scale, 0 no effect, 100 complete control, approx. 10 days): 100; Pigweed plant response rating ([2]; 500 g ai/ha, 0 to 100 scale, 0 no effect, 100 complete control, approx. 10 days): 100; Plant response rating, Pigweed [5, 16]: 100; Plant response rating, Wheat [6, 16]: 0; Galium plant response rating [11, 19]: 70; Plant response rating (0 to 100), Galium ([11]; 125 g ai/ha, postemergence): 85; Plant response rating, Galium [11, 20]: 55; Plant response rating (0 to 100), Pigweed ([12]; 125 g ai/ha, postemergence): 70; Plant response rating, Pigweed [12, 22]: 45; Barnyardgrass plant response rating [13, 19]: 5; Plant response rating (0 to 100), Barnyardgrass ([13]; 125 g ai/ha, postemergence): 10; Kochia plant response rating [14, 19]: 45; Plant response rating (0 to 100), Kochia ([14]; 125 g ai/ha, postemergence): 90; Plant response rating, Kochia [14, 20]: 70; Plant response rating (0 to 100), Velvetleaf ([15]; 125 g ai/ha, postemergence): 60; Plant response rating, Velvetleaf [15, 22]: 55"
Clc1cnc(Oc2cccc(Br)c2-n2cc(I)nn2)nc1 [Compound 117],30,100,70,90,90,90,100,70,30,50,0,20,40,70,85,5,5,100,30,80,"Barnyardgrass plant response rating [1, 17]: 90; Pigweed plant response rating [2, 18]: 100; Plant response rating, Galium [11, 24]: 80; Plant response rating (0 to 100), Pigweed [12, 23]: 80; Plant response rating, Pigweed [12, 25]: 90; Plant response rating (0 to 100), Barnyardgrass [13, 23]: 5; Plant response rating, Barnyardgrass [13, 24]: 10; Plant response rating (0 to 100), Kochia [14, 23]: 90; Plant response rating, Kochia [14, 24]: 100; Plant response rating (0 to 100), Velvetleaf [15, 23]: 10; Plant response rating, Velvetleaf [15, 25]: 45"
FCc1cn(-c2ccccc2Oc2ncc(Cl)cn2)nn1 [Compound 123],–,–,–,–,–,–,–,–,–,–,0,40,80,85,85,15,15,70,80,40,"Plant response rating, Barnyardgrass [1, 26]: 100; Pigweed plant response rating ([2]; 1000 g ai/ha, 0 to 100 scale, 0 no effect, 100 complete control, approx. 10 days): 100; Plant response rating, Barnyardgrass [3, 26]: 100; Plant response rating, Foxtail, Giant [4, 26]: 90; Plant response rating, Pigweed [5, 26]: 100; Plant response rating, Wheat [6, 26]: 70; Plant response rating, Corn [7, 26]: 70; Plant response rating, Galium [11, 24]: 90; Plant response rating (0 to 100), Pigweed [12, 23]: 70; Plant response rating, Pigweed [12, 25]: 85; Plant response rating (0 to 100), Barnyardgrass [13, 23]: 10; Plant response rating, Barnyardgrass [13, 24]: 15; Plant response rating (0 to 100), Kochia [14, 23]: 50; Plant response rating, Kochia [14, 24]: 85; Plant response rating (0 to 100), Velvetleaf [15, 23]: 60; Plant response rating, Velvetleaf [15, 25]: 100"
